# Measurements: PubChem BioAssay AID743409 (Vanderbilt Specialized Chemistry Center, 2014)
# Values joined by “and” are separate entries in the source; they are usually repeats but may differ in a detail not shown here. Equal entries are not always repeated. Active and inactive are the calls of the source. No rule for the calls is given here.
# Biological target: Phospholipase D2 (Homo sapiens) (UniProt O14939)
# Experiment: inhibitors of cellular PLD2 activity, cell-based (AID 743409)
# Conditions: cellular PLD2 isoenzyme activity, at 2 µM, stronger effect = higher value
# Phospholipase D2 (Homo sapiens), sequence (O14939 whole entry, looked up): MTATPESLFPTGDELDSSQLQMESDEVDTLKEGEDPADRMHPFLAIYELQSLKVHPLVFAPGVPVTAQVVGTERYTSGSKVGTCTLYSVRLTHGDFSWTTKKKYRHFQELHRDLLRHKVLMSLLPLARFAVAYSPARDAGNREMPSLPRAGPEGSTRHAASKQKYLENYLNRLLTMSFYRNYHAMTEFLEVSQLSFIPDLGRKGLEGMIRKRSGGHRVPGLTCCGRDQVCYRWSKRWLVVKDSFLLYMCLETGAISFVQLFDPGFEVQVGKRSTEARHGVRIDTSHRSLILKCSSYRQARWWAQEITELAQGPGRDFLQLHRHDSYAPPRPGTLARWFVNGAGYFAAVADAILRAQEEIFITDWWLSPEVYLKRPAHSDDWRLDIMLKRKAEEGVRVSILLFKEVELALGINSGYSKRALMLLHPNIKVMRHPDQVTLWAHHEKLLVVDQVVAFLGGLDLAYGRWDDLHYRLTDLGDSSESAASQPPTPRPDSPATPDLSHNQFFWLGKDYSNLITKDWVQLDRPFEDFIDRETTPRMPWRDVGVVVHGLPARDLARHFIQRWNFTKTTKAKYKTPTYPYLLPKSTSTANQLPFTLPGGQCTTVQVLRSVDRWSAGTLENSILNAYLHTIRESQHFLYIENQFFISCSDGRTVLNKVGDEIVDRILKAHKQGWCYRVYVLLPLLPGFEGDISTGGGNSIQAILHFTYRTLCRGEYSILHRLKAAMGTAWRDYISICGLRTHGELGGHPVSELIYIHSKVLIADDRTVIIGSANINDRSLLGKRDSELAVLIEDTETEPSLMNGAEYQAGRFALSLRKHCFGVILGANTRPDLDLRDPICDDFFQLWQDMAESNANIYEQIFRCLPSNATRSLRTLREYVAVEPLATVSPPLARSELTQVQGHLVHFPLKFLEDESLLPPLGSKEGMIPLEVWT
row,Structure (SMILES),inhibition
1,Cc1ccc(S(=O)(=O)NCCN2CCC3(CC2)C(=O)NCN3Cc2cccnc2)cc1,10% (inactive)
2,O=C(NCCN1CCC2(CC1)C(=O)NCN2Cc1cccnc1)c1cc(F)c(F)c(F)c1,10% (inactive)
3,O=C(NCCN1CCC2(CC1)C(=O)NCN2Cc1cccnc1)c1ccc(Cl)c(Cl)c1,63% (inactive)
4,O=C(NCCN1CCC2(CC1)C(=O)NCN2Cc1cccnc1)c1ccc(F)cc1F,0% (inactive)
5,O=C(NCCN1CCC2(CC1)C(=O)NCN2Cc1cccnc1)c1ccc(F)cc1Cl,0% (inactive)
6,Cc1nc2sc(C(=O)NCCN3CCC4(CC3)C(=O)NCN4Cc3cccnc3)c(N)c2c(C)c1C,8% (inactive)
7,O=C(NCCN1CCC2(CC1)C(=O)NCN2c1cccnc1)c1ccc2ccccc2c1,0% (inactive)
8,O=C(NCCN1CCC2(CC1)C(=O)NCN2c1cncc(F)c1)c1cc(F)c(F)c(F)c1,2% (inactive)
9,O=C(NCCN1CCC2(CC1)C(=O)NCN2Cc1cccnc1)c1ccc(C(F)(F)F)cc1,5% (inactive)
10,O=C(NCCN1CCC2(CC1)C(=O)NCN2Cc1cccnc1)c1ccc(F)cc1C(F)(F)F,0% (inactive)
11,O=C(NCCN1CCC2(CC1)C(=O)NCN2c1cccnc1)c1cc2cc(F)ccc2[nH]1,12% (inactive)
12,O=C(NCCN1CCC2(CC1)C(=O)NCN2Cc1cccnc1)c1cc2cccnc2[nH]1,19% (inactive)
13,Cc1cc(Br)cnc1C(=O)NCCN1CCC2(CC1)C(=O)NCN2Cc1cccnc1,1% (inactive)
14,O=C(NCCN1CCC2(CC1)C(=O)NCN2c1cccnc1)c1ccc(Br)cc1,0% (inactive)
15,O=C(NCCN1CCC2(CC1)C(=O)NCN2Cc1cccnc1)c1ccnc2ccccc12,0% (inactive)
16,O=C(NCCN1CCC2(CC1)C(=O)NCN2c1cncc(F)c1)c1ccc(F)c(F)c1,0% (inactive)
17,O=C(NCCN1CCC2(CC1)C(=O)NCN2Cc1cccnc1)c1c(F)ccc(Cl)c1F,18% (inactive)
18,Cn1c(C(=O)NCCN2CCC3(CC2)C(=O)NCN3Cc2cccnc2)cc2ccccc21,14% (inactive)
19,O=C(NCCN1CCC2(CC1)C(=O)NCN2Cc1cccnc1)c1c(Cl)cncc1Cl,3% (inactive)
20,O=C(NCCN1CCC2(CC1)C(=O)NCN2Cc1cccnc1)c1cccc2cccnc12,42% (inactive)
21,O=C(NCCN1CCC2(CC1)C(=O)NCN2Cc1cccnc1)c1ccc2c(c1)C(=O)NC2=O,0% (inactive)

row,Structure (SMILES),inhibition
1,O=C(NCCN1CCC2(CC1)C(=O)NCN2c1cncc(Br)c1)c1ccc2ccccc2c1,26% (inactive)
2,O=C(NCCN1CCC2(CC1)C(=O)NCN2Cc1cccnc1)c1ccc(Cl)cc1Cl,0% (inactive)
3,O=C(NCCN1CCC2(CC1)C(=O)NCN2Cc1cccnc1)c1ccc(Br)cc1,48% (inactive)
4,O=C(NCCN1CCC2(CC1)C(=O)NCN2Cc1cccnc1)c1ccc2ccccc2c1,80%
5,O=C(NCCN1CCC2(CC1)C(=O)NCN2c1ccc(C(F)(F)F)nc1)c1ccc2ccccc2c1,4% (inactive)
6,O=C(NCCN1CCC2(CC1)C(=O)NCN2Cc1cccnc1)c1sc2ncccc2c1-n1cccc1,5% (inactive)
7,O=C(NCCN1CCC2(CC1)C(=O)NCN2Cc1cccnc1)[C@@H]1C[C@H]1c1ccccc1,20% (inactive)
8,O=C(NCCN1CCC2(CC1)C(=O)NCN2Cc1cccnc1)c1ccc(F)cc1,11% (inactive)
9,O=C(NCCN1CCC2(CC1)C(=O)NCN2Cc1cccnc1)c1ccc(SC(F)(F)F)cc1,8% (inactive)
10,O=C(NCCN1CCC2(CC1)C(=O)NCN2c1cncc(F)c1)c1ccc2ccccc2c1,18% (inactive)
11,O=C(NCCN1CCC2(CC1)C(=O)NCN2Cc1cccnc1)c1nccc2ccccc12,32% (inactive)
12,O=C(NCCN1CCC2(CC1)C(=O)NCN2c1cccnc1)c1cc(F)c(F)c(F)c1,0% (inactive)
13,O=C(NCCN1CCC2(CC1)C(=O)NCN2Cc1cccnc1)c1cccc(F)c1,14% (inactive)
14,O=C(NCCN1CCC2(CC1)C(=O)NCN2c1cncc(F)c1)c1ccc(F)cc1,3% (inactive)
15,O=C(NCCN1CCC2(CC1)C(=O)NCN2Cc1cccnc1)c1ccc(Cl)cc1F,18% (inactive)
16,O=C(NCCN1CCC2(CC1)C(=O)NCN2Cc1cccnc1)c1nc(-c2ccc(F)cc2)no1,17% (inactive)
17,O=C(NCCN1CCC2(CC1)C(=O)NCN2Cc1cccnc1)c1cc2ccccc2[nH]1,100%
18,O=C(NCCN1CCC2(CC1)C(=O)NCN2Cc1cccnc1)c1ccc2cc(F)ccc2c1,36% (inactive)
19,O=C(NCCN1C=CC2(CC1)C(=O)NCN2Cc1cccnc1)c1cccc2nsnc12 (centres undefined),4% (inactive)
20,O=C(NCCN1CCC2(CC1)C(=O)NCN2Cc1cccnc1)c1ccccc1F,0% (inactive)
21,O=C(NCCN1CCC2(CC1)C(=O)NCN2Cc1cccnc1)c1c[nH]c2ccccc12,23% (inactive)

row,Structure (SMILES),inhibition
1,O=C(NCCN1CCC2(CC1)C(=O)NCN2c1ccnc(F)c1)c1ccc2ccccc2c1,15% (inactive)
2,O=C(NCCN1CCC2(CC1)C(=O)NCN2Cc1cccnc1)c1cccc(Cl)c1,21% (inactive)
3,O=C(NCCN1CCC2(CC1)C(=O)NCN2Cc1cccnc1)c1cccc(C(F)(F)F)c1,0% (inactive)
4,O=C(NCCN1CCC2(CC1)C(=O)NCN2c1cncc(F)c1)c1ccc(Br)cc1,15% (inactive)
5,O=C(NCCN1CCC2(CC1)C(=O)NCN2c1cccnc1)c1ccc(F)cc1,2% (inactive)
6,Cc1cc(C)c2cc(C(=O)NCCN3CCC4(CC3)C(=O)NCN4Cc3cccnc3)[nH]c2c1,35% (inactive)
7,O=C(NCCN1CCC2(CC1)C(=O)NCN2Cc1cccnc1)c1cc2ccccc2o1,73%
8,Cn1cc(C(=O)NCCN2CCC3(CC2)C(=O)NCN3Cc2cccnc2)c2ccccc21,31% (inactive)
9,COc1cc(C(=O)NCCN2CCC3(CC2)C(=O)NCN3Cc2cccnc2)cc(OC)c1OC,15% (inactive)
10,O=C(NCCN1CCC2(CC1)C(=O)NCN2Cc1cccnc1)c1cccs1,0%
11,O=C(NCCN1CCC2(CC1)C(=O)NCN2Cc1cccnc1)c1ccc(F)c(F)c1,22% (inactive)
12,O=C(NCCN1CCC2(CC1)C(=O)NCN2Cc1cccnc1)c1ccc2ccccc2c1Br,61%
13,O=C(NCCN1CCC2(CC1)C(=O)NCN2Cc1cccnc1)c1cc2cc(F)ccc2[nH]1,100%
14,O=C(NCCN1CCC2(CC1)C(=O)NCN2Cc1cccnc1)c1cc(F)cc(F)c1,4% (inactive)
15,O=C(NCCN1CCC2(CC1)C(=O)NCN2Cc1cccnc1)c1ccc2ccccc2n1,31% (inactive)
16,Cc1cc(N2CNC(=O)C23CCN(CCNC(=O)c2ccc4ccccc4c2)CC3)ccn1,0% (inactive)
17,O=C(NCCN1CCC2(CC1)C(=O)NCN2c1ccnc(Cl)c1)c1ccc2ccccc2c1,11% (inactive)
18,O=C(NCCN1CCC2(CC1)C(=O)NCN2c1cncc(F)c1)c1cc2cc(F)ccc2[nH]1,15% (inactive)
19,O=C(NCCN1CCC2(CC1)C(=O)NCN2c1cccnc1)c1ccc(F)c(F)c1,7% (inactive)

# Same assay, conditions: cellular PLD2 isoenzyme activity, at 20 µM, stronger effect = higher value
row,Structure (SMILES),inhibition
1,O=C(NCCN1CCC2(CC1)NCNC2=O)c1ccc2ccccc2c1,22% (inactive)
2,O=C(NCCN1CCC2(CC1)C(=O)NCN2CC1CC1)c1ccc2ccccc2c1,100%
3,O=C(NCCN1CCC2(CC1)C(=O)NCN2Cc1ccccc1F)c1ccc2ccccc2c1,65% and 100%
4,O=C(NCCN1CCC2(CC1)C(=O)NCN2Cc1ccccc1Br)c1ccc2ccccc2c1,100%
5,O=C(NCCN1CCC2(CC1)C(=O)NCN2Cc1ccccn1)c1ccc2ccccc2c1,100%
6,O=C(NCCN1CCC2(CC1)C(=O)NCN2Cc1cccc(Cl)c1)c1ccc2ccccc2c1,100%
7,O=C(NCCN1CCC2(CC1)C(=O)NCN2Cc1ccccc1)c1ccc2ccccc2c1,99%
8,O=C(NCCN1CCC2(CC1)C(=O)NCN2C(=O)c1ccccc1)c1ccc2ccccc2c1,82%
9,O=C(NCCN1CCC2(CC1)C(=O)NCN2Cc1ccc(Cl)cc1)c1ccc2ccccc2c1,96%
10,O=C(NCCN1CCC2(CC1)C(=O)NCN2C(=O)C1CC1)c1ccc2ccccc2c1,100%
11,O=C(NCCN1CCC2(CC1)C(=O)NCN2Cc1cccnc1)c1ccc2ccccc2c1,100%
12,O=C(NCCN1CCC2(CC1)C(=O)NCN2C(=O)c1cccc(F)c1)c1ccc2ccccc2c1,84%
13,O=C(NCCN1CCC2(CC1)C(=O)NCN2Cc1ccccc1Cl)c1ccc2ccccc2c1,100%
14,O=C(NCCN1CCC2(CC1)C(=O)NCN2Cc1ccncc1)c1ccc2ccccc2c1,100%
15,COc1cccc(C(=O)N2CNC(=O)C23CCN(CCNC(=O)c2ccc4ccccc4c2)CC3)c1,85%
16,O=C(NCCN1CCC2(CC1)C(=O)NCN2Cc1cccc2ccccc12)c1ccc2ccccc2c1,100%
17,O=C(NCCN1CCC2(CC1)C(=O)NCN2Cc1cccc(OC(F)(F)F)c1)c1ccc2ccccc2c1,46% (inactive)
18,O=C(NCCN1CCC2(CC1)C(=O)NCN2C(=O)C1CCC1)c1ccc2ccccc2c1,100%
